Patent publication US9522888B2, “Substituted bicyclic compounds” (BRISTOL-MYERS SQUIBB COMPANY, priority 2014, dated 2016)

Tests used:
[1] = target: S1P3 (membranes prepared from EDG3-Gal5-bla HEK293T cells) (Homo sapiens (Human), UniProt Q99500); experiment: Receptor [35S] GTPγS binding assay (S1P3 GTPγS); assay type: biochemical; details: phosphate examples; read-out: S1P3 GTPγS
Protocol: (§1) Receptor [^35S] GTPγS Binding Assays: (S1P1 GTPγS/S1P3 GTPγS)
(§2) Compounds were loaded in a 384 Falcon v-bottom plate (0.5 μl/well in a 11 point, 3-fold dilution). Membranes prepared from S1P1/CHO cells or EDG3-Gal5-bla HEK293T cells (EDG3 equivalent S1P3) were added to the compound plate (40 μl/well, final protein 3 μg/well) with MULTIDROP®. [^35S] GTP (1250 Ci/mmol, Perkin Elmer) was diluted in assay buffer: 20 mM HEPES, pH7.5, 10 mM MgCl2, 150 mM NaCl, 1 mM EGTA (ethylene glycol tetraacetic acid), 1 mM DTT (Dithiothreitol), 10 μM GDP, 0.1% fatty acid free BSA, and 10 μg/ml Saponin to 0.4 nM. 40 μl of the [^35S] GTP solution was added to the compound plate with a final concentration of 0.2 nM. The reaction was kept at room temperature for 45 min. At the end of incubation, all the mixtures in the compound plate were transferred to Millipore 384-well FB filter plates via the VELOCITY11® Vprep liquid handler. The filter plate was washed with water 4 times by using the manifold Embla plate washer and dried at 60° C. for 45 min. MicroScint 20 scintillation fluid (30 μl) was added to each well for counting on the Packard TOPCOUNT®.
A smaller value for GTPγS S1P1 EC50 value indicated greater activity for the compound in the GTPγS S1P1 binding assay. A larger value for the GTPγS S1P3 EC50 value indicated less activity in the GTPγS S1P3 binding assay. […] Thus the compounds of the present invention may be used in treating, preventing, or curing various S1P1 receptor-related conditions while reducing or minimizing the side effects due to S1P3 activity. The selectivity of the compounds of the present invention indicate their potential use in treating, preventing, or curing autoimmune and inflammatory diseases such as multiple sclerosis, rheumatoid arthritis, inflammatory bowel disease, lupus, psoriasis, or vascular diseases, while reducing or minimizing possible side effects due to S1P3 activity. Other potential uses of the compounds of the present invention include minimizing or reducing rejection of transplanted organs, while reducing or minimizing side effects due to S1P3 activity.

hS1P1/CHO cells = hS1P1/CHO cells (Homo sapiens (Human), UniProt P21453); experiment: hS1P1 ERK phosphorylation (S1P1 pERK); assay type: cell-based; details: phosphate examples
Protocol: hS1P1 ERK Phosphorylation (S1P1 pERK)
hS1P1/CHO cells were plated into BD Amine 384-well plates the day before the assay. On the day of the assay, growth medium was removed and replaced with serum-free medium (Ham's F-12 Invitrogen) and incubated for 2 hours. Test compounds pre-diluted in HBSS (Gibco)/20 mM HEPES (Gibco) were transferred to the cell plates and incubated for 7 minutes at 37° C. Cells were lysed in lysis buffer (Perkin Elmer) and phospho-ERK was measured using the SureFire pERK kit (Perkin Elmer) as described by the manufacturer. Data was plotted as percentage activation of the test compound relative to the efficacy of 10 μM S1P.

human S1P1 = human S1P1 (Homo sapiens (Human), UniProt P21453); experiment: S1P1 binding assay (33P-S1P radioligand competition, CHO cell membranes); details: phosphate examples; read-out: S1P1 Binding
Protocol: Membranes were prepared from CHO cells expressing human S1P1. Cells pellets (1×10^9 cells/pellet) were suspended in buffer containing 20 mM HEPES (4-(2-hydroxyethyl)-1-piperazineethanesulfonic acid), pH 7.5, 50 mM NaCl, 2 mM EDTA (Ethylenediaminetetraacetic acid) and Protease Inhibitor cocktail (Roche), and disrupted on ice using the Polytron homogenizer. The homogenate was centrifuged at 20,000 rpm (48,000 g) and the supernatant was discarded. The membrane pellets were resuspended in buffer containing 50 mM HEPES, pH 7.5, 100 mM NaCl, 1 mM MgCl2, 2 mM EDTA and stored in aliquots at −80° C. after protein concentration determination.

[2] = target: S1P1 (membranes prepared from S1P1/CHO cells) (Homo sapiens (Human), UniProt P21453); experiment: Receptor [35S] GTPγS binding assay (S1P1 GTPγS); assay type: biochemical; details: phosphate examples; read-out: S1P1 GTPγS
Protocol: as §1
as §2, with “TOPCOUNT®. […]” for “TOPCOUNT®.”

Sequence of human S1P1 (P21453 whole entry): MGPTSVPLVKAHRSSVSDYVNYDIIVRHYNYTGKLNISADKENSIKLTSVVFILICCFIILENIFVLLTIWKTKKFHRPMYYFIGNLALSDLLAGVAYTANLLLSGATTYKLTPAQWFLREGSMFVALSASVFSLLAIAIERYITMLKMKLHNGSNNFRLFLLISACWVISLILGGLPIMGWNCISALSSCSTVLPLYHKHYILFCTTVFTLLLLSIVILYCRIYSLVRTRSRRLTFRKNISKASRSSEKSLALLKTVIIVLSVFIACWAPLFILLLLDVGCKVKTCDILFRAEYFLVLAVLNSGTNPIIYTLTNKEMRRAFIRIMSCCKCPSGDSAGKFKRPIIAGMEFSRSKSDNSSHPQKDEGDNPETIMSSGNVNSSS
Sequence of S1P1 (membranes prepared from S1P1/CHO cells) (P21453 whole entry): as above
Sequence of hS1P1/CHO cells (P21453 whole entry): as above
Sequence of S1P3 (membranes prepared from EDG3-Gal5-bla HEK293T cells) (Q99500 whole entry): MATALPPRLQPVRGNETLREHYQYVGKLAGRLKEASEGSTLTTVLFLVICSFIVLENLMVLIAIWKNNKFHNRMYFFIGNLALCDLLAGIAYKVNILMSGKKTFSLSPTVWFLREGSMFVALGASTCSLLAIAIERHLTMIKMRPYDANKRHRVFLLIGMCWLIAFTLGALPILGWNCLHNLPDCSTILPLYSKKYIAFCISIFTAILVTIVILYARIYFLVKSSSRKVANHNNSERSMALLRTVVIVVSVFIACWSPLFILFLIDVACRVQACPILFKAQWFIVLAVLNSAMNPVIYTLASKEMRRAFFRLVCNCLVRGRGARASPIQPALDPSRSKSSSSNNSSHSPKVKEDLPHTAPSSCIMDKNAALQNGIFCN

Structure (SMILES)	EC50 [1] [nM]	EC50 (hS1P1/CHO cells) [nM]	IC50 (human S1P1) [nM]	EC50 [2] [nM]
CCCCCCC1CCc2cc([C@H]3CC[C@](N)(COP(=O)(O)O)C3)ccc2O1 (some centres unmarked) [compound 419]	> 625	10 to 100	–	–
CCCCCCO[C@@H]1CCc2cc([C@@H]3CC[C@](N)(COP(=O)(O)O)C3)ccc2C1 [compound 435]	> 625	–	10 to 100	–
COc1ccc(F)c(OC[C@@H]2CCc3cc([C@H]4CC[C@](N)(COP(=O)(O)O)C4)ccc3C2)c1 [compound 486]	–	10 to 100	–	< 10
CC(C)CN(C)C(=O)c1cccc(OC[C@@H]2CCc3cc([C@H]4CC[C@](N)(COP(=O)(O)O)C4)ccc3C2)c1 [compound 500]	> 625	< 10	–	< 10
CC(C)COCC[C@@H]1CCc2cc([C@H]3CC[C@](N)(COP(=O)(O)O)C3)ccc2C1 [compound 542]	> 625	< 10	–	< 10
CC(C)COCC[C@H]1CCc2cc([C@H]3CC[C@](N)(COP(=O)(O)O)C3)ccc2C1 [compound 543]	> 625	< 10	–	< 10
COc1ccc(C[C@@H]2CCc3cc([C@H]4CC[C@](N)(COP(=O)(O)O)C4)ccc3C2)cc1F [compound 554]	> 625	10 to 100	–	10 to 100
N[C@@]1(COP(=O)(O)O)CC[C@@H](c2ccc3c(c2)CC[C@H](OCCOCc2ccccc2)C3)C1 [compound 581]	> 625	–	< 10	< 10
C=CCCOCCO[C@H]1CCc2cc([C@@H]3CC[C@@](N)(COP(=O)(O)O)C3)ccc2C1 [compound 584]	> 625	–	< 10	< 10
CCCCCCC1CCc2nc([C@@H]3CC[C@@](N)(COP(=O)(O)O)C3)ccc2C1 (some centres unmarked) [compound 612]	> 625	–	1000 to 10000	10 to 100
N[C@]1(COP(=O)(O)O)CCC(c2ccc3c(c2)CN(CCCc2ccccc2)C3=O)C1 (some centres unmarked) [compound 614]	> 625	–	1000 to 10000	100 to 1000
CC1(C)c2cc([C@@H]3CC[C@](N)(COP(=O)(O)O)C3)ccc2C(=O)N1CCCc1ccccc1 [compound 615]	> 625	–	100 to 1000	100 to 1000
CCCCCC(=O)N1CCc2cc([C@H]3CC[C@@](N)(COP(=O)(O)O)C3)ccc2C1 [compound 617]	> 625	–	100 to 1000	–
CCCCCC[C@H]1CCc2cc([C@H]3CC[C@](N)(COP(=O)(O)O)C3)c(I)cc2C1 [compound 620]	> 625	–	10 to 100	< 10
CCCCCC[C@H]1CCc2cc([C@H]3CC[C@](N)(COP(=O)(O)O)C3)c(C)cc2C1 [compound 622]	> 625	–	< 10	< 10
CCCCCC(=O)OC1CCc2cc([C@H]3CC[C@](N)(COP(=O)(O)O)C3)ccc2C1 (some centres unmarked) [compound 623]	> 625	–	< 10	< 10
CC(C)CO/N=C1/CCc2cc([C@H]3CC[C@](N)(COP(=O)(O)O)C3)ccc2C1 [compound 666]	> 625	–	100 to 1000	100 to 1000
